pIC50: −log10 of the molar value.
Legend:
[1] = tested on: cellular (Ramos) QPCTL activity; conditions: Ramos cells, as disclosed in WO 2024/020517; read-out: Inhibitory activity of cellular (Ramos) QPCTL activity in a FACS assay; cited from earlier work
QPCTL = target: T1, QPCTL (Homo sapiens, UniProt Q9NXS2); experiment: Assay A: biochemical QPCTL activity assay (MALDI-TOF MS, CD47 peptide substrate); conditions: Table 3, prior art compounds, read-out: Inhibition of QPCTL: IC50
T1 construct: made in house
How it was run: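 Enzyme and compound pre-incubated 10 min at 24° C in 20 mM Tris pH 7.5 with TCEP, BSA, Tween20, then 40 min with CD47 peptide (10 μM for QPCTL, 20 μM for QPCT). Pyroglutamate product/internal standard ratio by MALDI-TOF MS, normalized to controls; four-parameter logistic fit.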

[2] = tested on: SIRPα signalling induced by A549 cells; experiment: Assay B: SIRPα signalling assay using A549 cells; format: cell-based; conditions: Homo sapiens, Table 5, prior art compounds, read-out: Inhibition of SIRPα signalling induced by A549 cells: IC50
How it was run: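 Raji or A549 cells (5000/well) were each incubated with serially diluted compound for 48 h at 37 °C. Jurkat PathHunter SIRPαV1 reporter cells (15000/well) were then added for 5 h. Beta-galactosidase luminescence gave IC50 via a 4-parameter sigmoidal fit.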

[3] = tested on: SIRPα signalling induced by Raji cells; experiment: Assay B: SIRPα signalling assay using Raji cells; format: cell-based; conditions: Homo sapiens, Table 5, prior art compounds, read-out: Inhibition of SIRPα signalling induced by Raji cells: IC50
How it was run: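 SIRPα signalling induced by Raji cells in a PathHunter reporter line, read as β-galactosidase complementation luminescence. Detection reagent 1 added for 15 min, then reagent 2 for 60 min in the dark, both at room temperature.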

T1 sequence (Q9NXS2 whole entry, species assumed): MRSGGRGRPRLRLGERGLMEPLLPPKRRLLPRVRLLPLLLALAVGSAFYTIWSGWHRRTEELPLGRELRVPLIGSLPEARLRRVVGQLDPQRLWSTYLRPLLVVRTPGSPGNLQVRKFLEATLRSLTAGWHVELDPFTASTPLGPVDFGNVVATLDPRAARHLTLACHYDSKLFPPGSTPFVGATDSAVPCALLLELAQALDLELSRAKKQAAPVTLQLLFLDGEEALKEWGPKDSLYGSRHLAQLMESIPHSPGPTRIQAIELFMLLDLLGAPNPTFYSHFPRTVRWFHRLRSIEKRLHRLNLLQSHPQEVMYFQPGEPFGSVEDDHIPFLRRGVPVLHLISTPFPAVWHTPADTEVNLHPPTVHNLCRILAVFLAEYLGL

Cn1cnnc1C1CCN(c2c(-c3ccnnc3)ccc(Cl)c2C#N)CC1 [Compound 33, reference compound]
pIC50 [1]: > 7.00 | pIC50 (QPCTL): 9.00 | pIC50 [2]: 7.25 | pIC50 [3]: 6.88
